pKi: −log10 of the molar value.
How the values were obtained:
[1] = molecular target: T1, human vasopressin V1b receptor (Homo sapiens, UniProt P47901); test: Vasopressin V1b receptor binding assay; settings: displacement of 3H-AVP, membranes of CHO-K1 cells with human V1b receptor
T1 construct: expressed in transfected cells; host or cells: CHO-K1 (cell line hV1b-3H2_CHO), membrane preparation
T1 sequence (P47901 1-424): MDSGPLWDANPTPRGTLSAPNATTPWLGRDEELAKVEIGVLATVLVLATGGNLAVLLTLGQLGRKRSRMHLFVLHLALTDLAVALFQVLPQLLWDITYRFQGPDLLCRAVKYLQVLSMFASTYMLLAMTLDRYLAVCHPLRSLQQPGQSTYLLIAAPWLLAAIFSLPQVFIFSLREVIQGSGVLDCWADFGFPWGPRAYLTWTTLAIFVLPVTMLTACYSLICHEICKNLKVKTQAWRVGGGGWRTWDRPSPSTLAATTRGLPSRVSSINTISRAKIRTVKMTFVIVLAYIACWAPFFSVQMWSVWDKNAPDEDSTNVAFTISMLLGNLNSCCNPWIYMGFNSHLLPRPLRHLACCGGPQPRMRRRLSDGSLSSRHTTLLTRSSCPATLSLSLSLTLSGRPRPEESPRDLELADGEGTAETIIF
Description: Methods for Determining the Biological Activity Vasopressin V1b Receptor Binding Assay: Substances:
This series of DMSO predilutions was diluted 1:10 with assay buffer. The substance concentration was again diluted 1:5 in the assay mixture (2% DMSO in the mixture).
All determinations were carried out as triplicate determinations.

[2] = molecular target: T2, recombinant human oxytocin receptors (Homo sapiens, UniProt P30559); test: Oxytocin receptor binding assay; settings: selectivity for V1b over oxytocin receptor, quotient of Ki values
T2 construct: expressed in transfected cells; host or cells: HEK-293, transient expression; lysed and homogenized cells
T2 sequence (P30559 1-389): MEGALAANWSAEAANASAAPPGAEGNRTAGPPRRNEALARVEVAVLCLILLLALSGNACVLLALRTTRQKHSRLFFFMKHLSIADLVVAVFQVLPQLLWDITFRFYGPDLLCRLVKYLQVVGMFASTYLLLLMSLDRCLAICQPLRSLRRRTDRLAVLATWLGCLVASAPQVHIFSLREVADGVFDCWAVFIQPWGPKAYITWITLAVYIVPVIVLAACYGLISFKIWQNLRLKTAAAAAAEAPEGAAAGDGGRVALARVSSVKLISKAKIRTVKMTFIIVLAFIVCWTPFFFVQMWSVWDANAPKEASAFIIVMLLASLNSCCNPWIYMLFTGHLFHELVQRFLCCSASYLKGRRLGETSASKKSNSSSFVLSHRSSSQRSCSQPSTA
Description: Oxytocin Receptor Binding Assay
Confluent HEK-293 cells with transiently expressing recombinant human oxytocin receptors were centrifuged at 750×g and at room temperature for 5 minutes. The residue was taken up in ice-cold lysis buffer (50 mM Tris-HCl, 10% glycerol, pH 7.4 and Roche Complete Protease Inhibitor) and subjected to an osmotic shock at 4° C. for 20 minutes. The lyzed cells were then centrifuged at 750×g and at 4° C. for 20 minutes, the residue was taken up in incubation buffer, and aliquots of 10^7 cells/ml were prepared. The aliquots were frozen at −80° C. until used.
On the day of the experiment, the cells were thawed, diluted with incubation buffer and homogenized using a Multipette Combitip (Eppendorf, Hamburg). […] The nonspecific binding was determined with 10^−6 M oxytocin (Bachem AG, H2510). Determinations in triplicate were set up. Bound and free radioligand were separated by filtration under vacuum with Whatman GF/B glass fibre filters using a Skatron cell harvester 7000. The bound radioactivity was determined by liquid scintillation measurement in a Tricarb beta counter, model 2000 or 2200CA (Packard).

[3] = Determination of the microsomal half-life / microsomal clearance (human); type: in vitro ADME; settings: pH 7.4; human liver microsomes, 0.5 μM test substance, 0.25 mg microsomal protein/ml; read-out: Human Mikrosomal Clearance
Description: The metabolic stability of a compound can be determined, for example, by incubating a solution of this compound with liver microsomes from particular species (for example rat, dog or human) and determining the half-life of the compound under these conditions (RS Obach, Curr Opin Drug Discov Devel. 2001, 4, 36-44). It is possible to conclude from an observed larger half-life that the metabolic stability of the compound is improved. The stability in the presence of human liver microsomes is of particular interest since it makes it possible to predict the metabolic degradation of the compound in the human liver. Compounds with increased metabolic stability (determined in the liver microsome test) are therefore probably also degraded more slowly in the liver. The slower metabolic degradation in the liver can lead to higher and/or longer-lasting concentrations (effective levels) of the compound in the body, so that the elimination half-life of the compounds according to the invention is increased. Increased and/or longer-lasting effective levels may lead to a better efficacy of the compound in the treatment or prophylaxis of various vasopressin-dependent diseases. An improved metabolic stability may additionally lead to an increased bioavailability after oral administration, because the compound is subjected, after being absorbed in the intestine, to less metabolic degradation in the liver (so-called first pass effect). An increased oral bioavailability may, because the concentration (effective level) of the compound is increased, lead to a better efficacy of the compound after oral administration.
Determination of the Microsomal Half-Life:
The metabolic stability of the compounds of the invention was determined in the following assay.
The test substances are incubated in a concentration of 0.5 μM as follows:
0.5 μM test substance is preincubated together with liver microsomes of various species (rat, human or other species) (0.25 mg of microsomal protein/ml) in 0.05M potassium phosphate buffer pH 7.4 in microtitre plates at 37° C. for 5 min. The reaction is started by adding NADPH (1 mg/ml). 50 μl aliquots are taken after 0, 5, 10, 15, 20 and 30 min, and the reaction is stopped immediately with the same volume of acetonitrile and cooled down. The samples are frozen until analyzed. Using MSMS, the remaining concentration of undegraded test substance is determined. From the […] of the test substance signal/time unit curve, the half-life (T½) is determined, where the half-life of the test substance can be calculated, assuming first order kinetics, from the decrease in the concentration of the compound with time. The microsomal clearance (mCl) is calculated as mCl=In2/T½/(content of microsomal protein in mg/ml)×1000 [ml/min/mg] (modified according to the literature references: Di, The Society for Biomoleculaur Screening, 2003, 453-462; Obach, DMD, 1999 vol 27. N 11, 1350-1359).

[4] = molecular target: human vasopressin V1a receptor (Homo sapiens, UniProt P37288); test: Vasopressin V1a receptor binding assay; settings: selectivity for V1b over V1a, quotient of Ki values
Chain of human vasopressin V1a receptor (P37288 whole entry): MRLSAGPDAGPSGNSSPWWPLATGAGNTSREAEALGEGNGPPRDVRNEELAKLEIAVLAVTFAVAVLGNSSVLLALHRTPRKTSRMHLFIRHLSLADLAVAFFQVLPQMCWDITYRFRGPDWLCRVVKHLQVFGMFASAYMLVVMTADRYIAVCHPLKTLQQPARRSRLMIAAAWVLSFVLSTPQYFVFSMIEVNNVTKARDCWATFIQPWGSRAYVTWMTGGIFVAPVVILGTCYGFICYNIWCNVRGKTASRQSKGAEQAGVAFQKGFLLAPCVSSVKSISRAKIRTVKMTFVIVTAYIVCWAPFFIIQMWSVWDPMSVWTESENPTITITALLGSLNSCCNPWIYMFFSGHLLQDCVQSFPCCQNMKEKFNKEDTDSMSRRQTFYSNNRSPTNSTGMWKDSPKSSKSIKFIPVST

Row | pKi [1] | Ki(h-OT)/Ki(h-V1b) [2] | microsomal CLint at 0.5 μM [3] [µL/min/mg] | Ki(h-V1a)/Ki(h-V1b) [4] | SMILES
1 | > 8.00 | +++ (>50) | < 60 | +++ (>100) | CCOc1ncccc1C1(NC(=O)N2CCC(N3CCN(C)CC3)CC2)C(=O)N(S(=O)(=O)c2ccc(OC)cc2OC)c2ccc(C#N)cc21 (single isomer, unassigned) [Example 31B, (−)-N-[5-Cyano-1-[(2,4-dimethoxyphenyl)sulphonyl]-3-(2-ethoxypyridin-3-yl)-2-oxo-2,3-dihydro-1H-indol-3-yl]-4-(4-methylpiperazin-1-yl)piperidine-1-carboxamide]
2 | > 8.00 | +++ (>50) | < 60 | +++ (>100) | CCOc1ncccc1C1(NC(=O)N2CCC(N3CCN(CC)CC3)CC2)C(=O)N(S(=O)(=O)c2ccc(OC)cc2OC)c2ccc(C#N)cc21 (single isomer, unassigned) [Example 37B, (−)-N-[5-Cyano-1-[(2,4-dimethoxyphenyl)sulphonyl]-3-(2-ethoxypyridin-3-yl)-2-oxo-2,3-dihydro-1H-indol-3-yl]-4-(4-ethylpiperazin-1-yl)piperidine-1-carboxamide]
3 | > 8.00 | +++ (>50) | 60 to 120 | + (15-50) | CCOc1ncccc1C1(NC(=O)N2CCC(N3CCN(CC)CC3)CC2)C(=O)N(S(=O)(=O)c2ccccc2)c2ccc(C#N)cc21 (single isomer, unassigned) [Example 40B, (−)-N-[5-Cyano-3-(2-ethoxypyridin-3-yl)-2-oxo-1-(phenylsulphonyl)-2,3-dihydro-1H-indol-3-yl]-4-(4-ethylpiperazin-1-yl)piperidin-1-carboxamide]
4 | > 8.00 | +++ (>50) | < 60 | +++ (>100) | CCOc1ncccc1[C@]1(NC(=O)N2CCN(C3CCN(C)CC3)CC2)C(=O)N(S(=O)(=O)c2ccc(OC)cc2OC)c2ccc(C#N)cc21 [Example 1B, (−)-N-[5-Cyano-1-[(2,4-dimethoxyphenyl)sulphonyl]-3-(2-ethoxypyridin-3-yl)-2-oxo-2,3-dihydro-1H-indol-3-yl]-4-(1-methylpiperidin-4-yl)piperazine-1-carboxamide]

— US8859557B2, “Substituted oxindole derivatives and their use as vasopressin receptor ligands” (Abbott GmbH & Co. KG, priority 2006, dated 2014)
